Reference: PubChem BioAssay (NCI)
Where “and” joins values, the source holds several entries; their conditions need not be identical. Equal entries are not always repeated.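 All cell lines were grown in 96-well plates and treated with compound for 48 hours. At the GI50, growth is halved. TGI: concentration producing complete growth inhibition.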

Tests used:
Assay in all cases: DTP human tumour cell line panel, 48 h
NCI-H460 lung = tested on: NCI-H460 lung
SN12C renal = tested on: SN12C renal
OVCAR-3 ovarian = tested on: OVCAR-3 ovarian
DU-145 prostate = tested on: DU-145 prostate
MDA-MB-435 = tested on: MDA-MB-435
UACC-257 melanoma = tested on: UACC-257 melanoma
NCI-H226 lung = tested on: NCI-H226 lung
MCF7 breast = tested on: MCF7 breast
SF-268 CNS = tested on: SF-268 CNS
UO-31 renal = tested on: UO-31 renal

Row | SMILES | GI50 (NCI-H460 lung) | TGI (NCI-H460 lung) | GI50 (SN12C renal) | TGI (SN12C renal) | GI50 (OVCAR-3 ovarian) | TGI (OVCAR-3 ovarian) | GI50 (DU-145 prostate) | TGI (DU-145 prostate) | GI50 (MDA-MB-435) | TGI (MDA-MB-435) | GI50 (UACC-257 melanoma) | TGI (UACC-257 melanoma) | GI50 (NCI-H226 lung) | TGI (NCI-H226 lung) | GI50 (MCF7 breast) | TGI (MCF7 breast) | GI50 (SF-268 CNS) | TGI (SF-268 CNS) | GI50 (UO-31 renal) | TGI (UO-31 renal)
1 | c1ccc(Oc2c3ccccc3nc3ccccc23)cc1 | 3.29 µM | 10.3 µM | 5.27 µM | 16.8 µM | 3.41 µM | 13.2 µM | 3.72 µM | 11.2 µM | 1.77 µM | 6.16 µM | 9.59 µM | 26.3 µM | 6.89 µM | 27.1 µM | 2.48 µM | 17.5 µM | 5.28 µM | 17.3 µM | 5.64 µM | 19.1 µM
2 | O=C(O)C1CCCN1Cc1c[nH]c2ccccc12 (centres undefined) |  | > 100 µM |  | > 100 µM |  | > 100 µM |  | > 100 µM |  | > 100 µM |  | > 100 µM |  | > 100 µM |  | > 100 µM |  | > 100 µM |  | > 100 µM
3 | O=C1CC2(CCCc3sccc32)C(=O)N1 (centres undefined) |  | > 100 µM |  | > 100 µM |  | > 100 µM |  | > 100 µM |  | > 100 µM |  | > 100 µM |  | > 100 µM |  | > 100 µM |  | > 100 µM |  | > 100 µM
4 | COc1cccc(-c2nc(-c3ccc(NS(=O)(=O)c4ccccc4)cc3)[nH]c2-c2ccnc(Br)c2)c1 | 2.85 µM | 8.71 µM | 3.03 µM | > 100 µM | 3.03 µM | 17.7 µM | 3.69 µM | > 100 µM | 2.51 µM | 9.21 µM | 3.11 µM | 30.3 µM | 2.91 µM | > 100 µM | 2.64 µM | > 100 µM | 3.34 µM | > 100 µM | 2.29 µM | 6.89 µM
5 | O=c1oc2ccccc2cc1-c1ccc([N+](=O)[O-])cc1 |  | > 100 µM |  | > 100 µM |  | > 100 µM |  | > 100 µM |  | > 100 µM |  | > 100 µM |  | > 100 µM |  | > 100 µM |  | > 100 µM |  | > 100 µM
6 | Cc1c(C(=O)N/N=C/c2ccc(O)cc2)nnn1-c1ccnc2c(C(F)(F)F)cccc12 | > 100 µM | > 100 µM | 16.3 µM | 83.3 µM | > 100 µM | > 100 µM | > 100 µM | > 100 µM | > 100 µM | > 100 µM | > 100 µM | > 100 µM | 36.9 µM | > 100 µM | 9.12 µM | > 100 µM | 64.4 µM | > 100 µM | > 100 µM | > 100 µM
7 | Cc1c(C(=O)CCl)c(=O)n(-c2ccccc2)n1C | 7.94 µM | 32.1 µM | 5.93 µM | 28.6 µM | 1.98 µM | 4.94 µM | 2.22 µM | 5.36 µM | 2.57 µM | 11.5 µM | 2.58 µM | 16.3 µM | 13.3 µM | 33.2 µM | 2.73 µM | 11.6 µM | 5.47 µM | 19.7 µM | 3.24 µM | 18.5 µM
8 | Cc1c2ncccc2c(C)c2c1[nH]c1ccc(O)cc12 | 2.78 µM and 1.6 µM | 12.8 µM and 7.17 µM | 5.99 µM and 5.39 µM | 14.2 µM and 42.5 µM | 4.01 µM | 20 µM | 5.31 µM | 17.9 µM |  | 20.9 µM | 27.3 µM | 25.2 µM and 89 µM | 7.8 µM | 22.2 µM and 17.6 µM | 5.95 µM and 8.58 µM | 15.2 µM and 50 µM | 7.55 µM | 19.1 µM | 8.04 µM | 16.7 µM and 28.4 µM
9 | COc1cc2c3c(n(CCCO)c(=O)c2cc1OC)-c1cc2c(cc1C3=O)OCO2 | 0.845 µM | > 100 µM | 3.53 µM | > 54.3 µM | 21.6 µM | > 81.9 µM | 3.22 µM | > 44.3 µM | 31.4 µM | > 100 µM | 64.7 µM | > 100 µM | 3.85 µM | 50.9 µM | 2.94 µM | > 100 µM | 9.04 µM | > 100 µM | > 21.2 µM | > 100 µM
10 | Clc1ccc(N2COOC3(OOC2)C2CC4CC(C2)CC3C4)cc1 | 1.57 µM | 9.27 µM | 5.35 µM | > 56.9 µM | 13.2 µM | 39.1 µM | 8.83 µM | > 89 µM | 1.61 µM | 13.2 µM | > 54.4 µM | > 100 µM | > 61.2 µM | > 100 µM | 3.98 µM | > 46.1 µM | 5.88 µM | > 67.4 µM | 0.579 µM | 2.21 µM
11 | CCOC(=O)Oc1c(OC)cc(C(=O)c2ccc(OC)c(OC(=O)CCl)c2OC)cc1OC | 2.09 µM | 44.9 µM | 3.39 µM | > 100 µM | 0.414 µM | 23 µM | 1.83 µM | > 100 µM | 0.239 µM | 0.773 µM | 66.6 µM | > 100 µM | 4.38 µM | 37.9 µM | 0.88 µM | > 100 µM | 10.7 µM | > 100 µM | 3.07 µM | > 100 µM
12 | O=C(Oc1cccc(Nc2ncnc3ccccc23)c1)c1ccccc1Cl | 20.3 µM | 52.7 µM | 15.5 µM | 49.6 µM | 16.7 µM | 56.9 µM | 22.3 µM | > 100 µM | 41.6 µM | > 100 µM | 26.6 µM | 57.1 µM | 16.3 µM | 43.8 µM | 11.7 µM | 37.1 µM | 20.8 µM | 67 µM | 36.4 µM | > 100 µM
13 | CC1/C=C/C=C/CC/C=C/C=C/C=C/C=C/C(OC2OC(C)C(O)C(N)C2O)CC2OC(CC(O)C(O)CCC(O)CC(O)CC(O)CC(=O)OC(C)C(C)C1O)CC(O)C2C(=O)O (centres undefined) | 30.4 µg/mL | 39.7 µM and 87.7 µg/mL | 23.4 µg/mL | 30.3 µM and 43.8 µg/mL | 101 µg/mL | 37.2 µM and 150 µg/mL | 32.3 µg/mL | 32.4 µM and 73.5 µg/mL | 28.1 µg/mL | 31.9 µM and 50.1 µg/mL | 28.9 µg/mL | 32.7 µM and 53.8 µg/mL | 28.7 µg/mL | 28.3 µM and 53.6 µg/mL | 128 µg/mL | 36.4 µM and 150 µg/mL | 33.9 µg/mL | 56.9 µM and 70.7 µg/mL | 20 µg/mL | 35.8 µM and 40.6 µg/mL
14 | O=c1oc2ccccc2c(Cl)c1Cl | 3.21 µM | 12.1 µM | 4.58 µM | 16.8 µM | 1.94 µM | 4.38 µM | 3.02 µM | 12.1 µM | 3.32 µM | 11.4 µM | 2.24 µM | 5.39 µM | 10 µM | 24.5 µM | 2.83 µM | 10.6 µM | 3.91 µM | 16.3 µM | 1.83 µM | 4.73 µM
15 | NCCCn1c2c(c3ccccc3c1=O)C(=O)c1cc3c(cc1-2)OCO3 | 0.0547 µM | 12.6 µM | 0.276 µM | 1.05 µM | 0.766 µM | 3.85 µM | 0.137 µM | 0.638 µM | 1.43 µM | 8.1 µM | 1.95 µM | 12.6 µM | 0.514 µM | 3.48 µM | 0.126 µM | > 52.7 µM | 1.51 µM | 15 µM | 0.265 µM | 1.99 µM
16 | O=C1c2cccnc2-c2nc(-c3ccccn3)cc3c2c1nc1ccccc13 | 0.0616 µM | 0.268 µM | 0.21 µM | 1.19 µM | 0.161 µM | 0.309 µM | 0.156 µM | 0.57 µM | 0.728 µM | 2.09 µM | 0.533 µM | 1.97 µM | 0.936 µM | 2.89 µM | 0.463 µM | 2.22 µM | 0.449 µM | 2.5 µM | 0.0539 µM | 0.219 µM
17 | CCN(CC)c1ccc2[nH]c3c(C(N)=O)cc(=O)c(=O)c=3oc2c1 | 1.34 µM | 12.6 µM | 2.09 µM | > 100 µM | 0.68 µM | 4.3 µM | 1.87 µM | 7.39 µM | 0.377 µM | 9.78 µM | 0.683 µM | 3.25 µM | 2.49 µM | 7.54 µM | 1.68 µM | > 100 µM | 1.98 µM | 15.1 µM | 1.07 µM | 4.12 µM
